Test results as given in patent US8298993B2, “Herbicidal composition and method of use thereof” (Syngenta Crop Protection LLC, priority 2006, dated 2012).

Key:
[1] = test system: large crabgrass (Digitaria sanguinalis); assay: Glasshouse trial, control of large crabgrass, post-emergence application; type: in vivo
Experimental: A glasshouse trial was carried out. Large crabgrass seeds were sown into standard glasshouse potting mix (1:1 v/v Promix:Vero sand soil) contained in 10 cm square plastic pots. Treatments were replicated three times. Mesotrione (in the form Callisto® 480SE) was applied post-emergence to large crabgrass (Digitaria sanguinalis) at either 12 g ai/ha or 24 g ai/ha with or without s-metolachlor (in the form Dual Magnum®). When used, s-metolachlor was applied at a rate of 500 g ai/ha or 1000 g ai/ha. The adjuvant system was X-77 at 0.1% v/v in deionised water. 200 liters of herbicide/adjuvant system was used per hectare. General weed control was evaluated at 7 and 14 days after treatment (DAT). It is noted that all herbicides were applied at reduced field rates because herbicide effects are magnified in a glasshouse environment. Rates were chosen to give a 50 to 70% level of control with herbicides applied alone as this allows for detection of any synergistic effect when tank mixtures are used. […] The results were evaluated using the Colby formula. The expected result for (A+B) is (A+B)−(A×B/100) where A and B are the ‘observed’ results for A and B on their own.

[2] = test system: white clover (Trifolium repens); assay: Glasshouse trial, control of white clover, post-emergence application; type: in vivo; conditions: 16 DAT
Experimental: A glasshouse trial was carried out. White clover seeds were sown into standard glasshouse potting mix (1:1 v/v Promix:Vero sand soil) contained in 10 cm square plastic pots. Treatments were replicated three times. Mesotrione (in the form Callisto®480SE) was applied post-emergence to white clover (Trifolium repens) at either 50 g ai/ha or 100 g ai/ha with or without s-metolachlor (in the form Dual Magnum®). […] The adjuvant system was X-77 at 0.1% v/v in deionised water. 200 liters of herbicide/adjuvant system was used per hectare. General weed control was evaluated at 10 and 16 days after treatment (DAT). It is noted that all herbicides were applied at reduced field rates because herbicide effects are magnified in a glasshouse environment. Rates were chosen to give a 50 to 70% level of control with herbicides applied alone as this allows for detection of any synergistic effect when tank mixtures are used. […] The results were evaluated using the Colby formula. The expected result for (A+B) is (A+B)−(A×B/100) where A and B are the ‘observed’ results for A and B on their own.

large crabgrass = assay: Control of large crabgrass, pre-emergent application of the herbicides; type: in vivo, Digitaria sanguinalis; conditions: s-metolachlor 5 g ai/ha in the absence of mesotrione

Molecule | control of large crabgrass, herbicide alone ([1]; mesotrione alone, post-emergence, 7 DAT) | control of white clover, herbicide alone ([2]; mesotrione alone at the lower rate (50 g ai/ha)) [%] | control of large crabgrass, herbicide alone ([1]; first experiment, s-metolachlor on its own (500 or 1000 g ai/ha), post-emergence, 14 DAT) | control of large crabgrass, herbicide alone ([1]; repeat experiment, s-metolachlor 500 g ai/ha in the absence of mesotrione, 14DAT) [%] | control of large crabgrass, herbicide alone ([1]; repeat experiment, s-metolachlor 1000 g ai/ha in the absence of mesotrione, 14DAT) [%] | control of white clover, herbicide alone ([2]; s-metolachlor on its own at 500 g ai/ha) [%] | control of large crabgrass, herbicide alone (large crabgrass) [%]
CS(=O)(=O)c1ccc(C(=O)C2C(=O)CCCC2=O)c([N+](=O)[O-])c1 [mesotrione, 2-(2′-nitro-4′-methylsulphonylbenzoyl)-1,3-cyclohexanedione] | relatively high | 32 |  |  |  |  | 
s-metolachlor |  |  | no control | 7 | 7 | 3 | 95
